Laboratory results: paper PMC4026528 (PLoS ONE, 2014)

How the values were obtained:
[1] = test system: Axin1, c-Myc, p21 protein in HT-1080 cells; assay: Western blotting in HT-1080; format: cell-based, human; conditions: HT-1080, overnight
[2] = test system: human mRNA in HT-1080 xenograft tumors; assay: Gene expression (qPCR) in HT-1080 xenograft tumors; format: in vivo, female Crl:CD-1 nude mice
Experimental: RNA extraction and quantitative RT-PCR (qPCR) expression analysis was performed as described previously. Gene expression analysis was performed using the human housekeeping gene RPL13A. Primers for the hAXIN2, hCDC25A, hc-MYC, hFZD4, hDVL2, hCSNK1G and hVEGF-A were the following: [NT] Rv: [NT] Rv: [NT] Rv: [NT] Rv: [NT] Rv: [NT] Rv: [NT] Rv: [NT]. Female athymic nude mice (6 weeks old, Crl:CD-1 nude mice) were obtained from Charles River Italia (Calco, Italy). HT-1080 cells (6×10^∧6 cells) were resuspended in 200 μl of PBS 1X and injected subcutaneously in the right flank of the mice. Body weight and tumor measurements (using a digital caliper) were performed twice a week. […] SEN461 was formulated in 0.5% w/v Methocel in MilliQ water and administered PO by oral gavage twice a day at 30 mg/kg for seven consecutive days in a total of 15 animals (n = 5 for each time point). Control animals (n = 5) were administered with the vehicle for the same time period. On treatment day 19, the mice were euthanized under inhalant anesthesia with isoflurane and tumor and blood samples were collected at three different time points (1-4-8 h, n = 5 animals for each time point) after last treatment and subjected to gene expression analysis and compound quantification. All mice were maintained in a conventional-specific-pathogen-free facility according to the NIH guidelines using an approved Animal Care and Use Committee protocol. During all the experimental time period, mice were housed (5 animals/cage) in individually ventilated solid floor plastic cages (Sealsafe Plus GR500, Tecniplast-Gazzada (VA) - Italy) using as bedding the Sawdust SCOBIS UNO by […] (via Galileo […] Milanese, Milano, Italy). Cages were maintained at a temperature of 20-24°C and humidity of 40-70% (Siemens Desigo Apparatus ver. 4.1) with 70 air changes/hour in the cage (10-15 air changes/hour in the room). Animals were subjected to a 12-hour light/12-hour dark cycle and have free access to a standard pelleted commercial laboratory diet (Certified Rodent irradiated 4RF21- Mucedola, Italy) and to municipal tap water, purified by reverse osmosis and autoclaved. The study was conducted in compliance with Decreto Legislativo January 27, 1992, N. 116, Gazzetta Ufficiale N. 40 February 18, 1992, (Directive N. […]) concerning protection of animals used for scientific purposes. The project was authorized by the Italian Institute of Health (48/2009/B). The experimental protocol was […] approved by the Internal Ethical Committee.

[3] = 30 mg/kg BID PO 7 days, data not shown

SMILES: COCC(=O)N1CCN(C(=O)C2CCC(Cn3c(=O)c4cc(OC)ccc4n(C)c3=O)CC2)CC1 (stereo not shown) [SEN461]
- Axin1 protein level [1]: robust concentration dependent stabilization
- CDK inhibitor p21 protein level [1]: up-regulation
- c-Myc protein level [1]: down-modulation of c-Myc
- AXIN2 mRNA in HT-1080 xenograft tumors [2, 3]: without any significant effect
- CDC25A mRNA in HT-1080 xenograft tumors [2, 3]: without any significant effect
- c-MYC mRNA in HT-1080 xenograft tumors ([2]; 30 mg/kg BID PO 7 days, 1, 4, 8 h, vs control animals): down-modulation of c-MYC
- VEGF-A mRNA in HT-1080 xenograft tumors ([2]; 30 mg/kg BID PO, 1 h, treated versus control): did not show any difference
